How the values were obtained:
Assay type in all cases: cell-based
Nav1.7 = Nav1.7 (Homo sapiens, UniProt Q15858); experiment: Sodium channel selectivity test, patch-clamp, Nav1.7; conditions: read-out: Nav1.7 Inhibition rate (%)
Description: (§1) Test Example 3: Selectivity test of the compounds of the present disclosure on sodium channels • 1. Experimental objective: The effects of the compounds on the current of the voltage-gated sodium channel (NaV) subtypes 1.1-1.7 were detected by patch-clamp technique • 2. Experimental materials and instruments • 2.1 Cell lines: CHO/HEK293 cell lines stably expressing Nav1.1-1.7 sodium channels, constructed in-house by the laboratory of Beijing ICE Bioscience Co., Ltd., (Reference: Jarvis MF, Honore P, Shieh CC, Chapman M, Joshi S, Zhang XF, Kort M, Carroll W, Marron B, Atkinson R, Thomas J, Liu D, Krambis M, Liu Y, McGaraughty S, Chu K, Roeloffs R, Zhong C, Mikusa JP, Hernandez G, Gauvin D, Wade C, Zhu C, Pai M, Scanio M, Shi L, Drizin I, Gregg R, Matulenko M, Hakeem A, Gross M, Johnson M, Marsh K, Wagoner PK, Sullivan JP, Faltynek CR, Krafte DS. A-803467, a potent and selective Nav1.8 sodium channel blocker, attenuates neuropathic and inflammatory pain in the rat. Proc Natl Acad Sci U S A. 2007 May 15;104(20):8520-5. doi: 10.1073/pnas.0611364104. Epub 2007 May 2. PMID: 17483457; PMCID: PMC1895982.), gene information Nav1.1: NM_006920; Nav1.2: NM_001040142; Nav1.3: NM_006922; Nav1.4: NM_000334; Nav1.5: NM198056; Nav1.6: NM014191; Nav1.7: […]. • 2.2 Compounds: Dissolved in DMSO, with sample concentration prepared at 30 µM. • 3. Experimental methods • 3.1 Cell culture • (1) Maintenance medium: CHO cells were cultured in HAM'S/F-12 medium containing 10% fetal bovine serum, 100 µg/mL Zeocin, and 10 µg/mL Blasticidin, under conditions of 37°C incubation temperature and 5% carbon dioxide concentration. HEK-293 cells were cultured in DMEM medium containing 10% fetal bovine serum and 800 µg/mL G418; the culture temperature was 37°C, and the carbon dioxide concentration was 5%. • (2) Cell passage: The old medium was removed, and the cells were washed once with PBS, then 1 mL of 0.25%-Trypsin-EDTA solution was added and incubated at 37°C for approximately 1.5 min. When the cells were detached from the bottom of the dish, about 5 mL of preheated complete medium at 37°C was added. […]

Nav1.3 = Nav1.3 (Homo sapiens, UniProt Q9NY46); experiment: Sodium channel selectivity test, patch-clamp, Nav1.3; conditions: read-out: Nav1.3 Inhibition rate (%)
Description: as §1

Nav1.8 sodium channel = biological target: T1, Nav1.8 sodium channel (Homo sapiens, UniProt Q9Y5Y9); experiment: Blocking activity against sodium channel 1.8 (Nav1.8), whole-cell patch-clamp, inhibition rate; conditions: CHO cell line stably expressing Nav1.8; patch-clamp; test concentration not given
T1 construct: host or cells: CHO
Description: Experimental objective: The effects of the compounds on the current of the voltage-gated sodium channel (NaV) 1.8 subtype were detected by patch-clamp technique • 2. […] When the cells were detached from the bottom of the dish, about 5 mL of preheated complete medium at 37°C was added. The cell suspension was gently pipetted up and down to separate the aggregated cells. The cell suspension was transferred to a sterile centrifuge tube and centrifuged at 1000 rpm for 5 min to collect the cells. […] First, the voltage was stepped from -130 mV to -10 mV in 10 mV increments for 5 s, and then a 0 mV depolarizing pulse was applied to obtain the half-inactivation voltage (Vhalf). The resting state and half-inactivated state of the sodium current were detected by using a double-pulse protocol. First, the first depolarizing pulse (TP1) was applied to 0 mV for 50 ms to detect the sodium current in the resting state. Then, the voltage was adjusted to Vhalf and maintained for 5 s, followed by restoration of the voltage to -120 mV and maintenance for 20 ms, after which the second depolarizing pulse (TP2) was applied to 0 mV for 50 ms to detect the sodium current in the half-inactivated state. Finally, the voltage was restored to the clamping voltage of -120 mV. Data were repeatedly collected every […] to observe the effect of the drug on the peak values of sodium currents in the two different states. Experimental data were collected by the EPC 10 amplifier (HEKA) and stored in the PatchMaster (HEKA) software. • (2) During patch clamp operation, capillary glass tubes were first pulled into recording electrodes using a microelectrode puller, then the electrodes filled with intracellular solution were installed into the microelectrode holder. Under an inverted microscope, the micromanipulator was used to bring the recording electrode into contact with the cell, and negative pressure suction was applied to form a GΩ seal. At this time, fast capacitance compensation was performed, and then negative pressure was continuously applied to rupture the cell membrane and form the whole-cell recording mode. Finally, slow capacitance compensation was performed, and related parameters were recorded. Leak compensation was not applied. • (3) When the sodium current of whole-cell recording became stable, drug administration was started, and each drug concentration was applied for 5 min (or until the current became stable) before the next concentration was tested. The coverslip coated with cells was placed in the recording bath under an inverted microscope, and the blank control external solution and the test compound working solution were perfused through the recording bath in sequence from low concentration to high concentration by gravity, thereby acting on the cells, while a peristaltic pump was used for liquid exchange during recording. The current detected in the external solution without compounds for each cell was used as its own control group. Each concentration was independently tested twice. All electrophysiological experiments were conducted at room temperature.
First, the current after the effect of each drug concentration and the blank control current were normalized, then the inhibition rate corresponding to each drug concentration was calculated, that is, (1-Icompound /Icontrol), and the mean, standard deviation (SD), and standard error (SE) of the inhibition rate for each concentration were calculated, and the data were expressed as mean ± SE.

Nav1.4 = Nav1.4 (Homo sapiens, UniProt P35499); experiment: Sodium channel selectivity test, patch-clamp, Nav1.4; conditions: read-out: Nav1.4 Inhibition rate (%)
Description: as §1

T1 sequence (Q9Y5Y9 whole entry): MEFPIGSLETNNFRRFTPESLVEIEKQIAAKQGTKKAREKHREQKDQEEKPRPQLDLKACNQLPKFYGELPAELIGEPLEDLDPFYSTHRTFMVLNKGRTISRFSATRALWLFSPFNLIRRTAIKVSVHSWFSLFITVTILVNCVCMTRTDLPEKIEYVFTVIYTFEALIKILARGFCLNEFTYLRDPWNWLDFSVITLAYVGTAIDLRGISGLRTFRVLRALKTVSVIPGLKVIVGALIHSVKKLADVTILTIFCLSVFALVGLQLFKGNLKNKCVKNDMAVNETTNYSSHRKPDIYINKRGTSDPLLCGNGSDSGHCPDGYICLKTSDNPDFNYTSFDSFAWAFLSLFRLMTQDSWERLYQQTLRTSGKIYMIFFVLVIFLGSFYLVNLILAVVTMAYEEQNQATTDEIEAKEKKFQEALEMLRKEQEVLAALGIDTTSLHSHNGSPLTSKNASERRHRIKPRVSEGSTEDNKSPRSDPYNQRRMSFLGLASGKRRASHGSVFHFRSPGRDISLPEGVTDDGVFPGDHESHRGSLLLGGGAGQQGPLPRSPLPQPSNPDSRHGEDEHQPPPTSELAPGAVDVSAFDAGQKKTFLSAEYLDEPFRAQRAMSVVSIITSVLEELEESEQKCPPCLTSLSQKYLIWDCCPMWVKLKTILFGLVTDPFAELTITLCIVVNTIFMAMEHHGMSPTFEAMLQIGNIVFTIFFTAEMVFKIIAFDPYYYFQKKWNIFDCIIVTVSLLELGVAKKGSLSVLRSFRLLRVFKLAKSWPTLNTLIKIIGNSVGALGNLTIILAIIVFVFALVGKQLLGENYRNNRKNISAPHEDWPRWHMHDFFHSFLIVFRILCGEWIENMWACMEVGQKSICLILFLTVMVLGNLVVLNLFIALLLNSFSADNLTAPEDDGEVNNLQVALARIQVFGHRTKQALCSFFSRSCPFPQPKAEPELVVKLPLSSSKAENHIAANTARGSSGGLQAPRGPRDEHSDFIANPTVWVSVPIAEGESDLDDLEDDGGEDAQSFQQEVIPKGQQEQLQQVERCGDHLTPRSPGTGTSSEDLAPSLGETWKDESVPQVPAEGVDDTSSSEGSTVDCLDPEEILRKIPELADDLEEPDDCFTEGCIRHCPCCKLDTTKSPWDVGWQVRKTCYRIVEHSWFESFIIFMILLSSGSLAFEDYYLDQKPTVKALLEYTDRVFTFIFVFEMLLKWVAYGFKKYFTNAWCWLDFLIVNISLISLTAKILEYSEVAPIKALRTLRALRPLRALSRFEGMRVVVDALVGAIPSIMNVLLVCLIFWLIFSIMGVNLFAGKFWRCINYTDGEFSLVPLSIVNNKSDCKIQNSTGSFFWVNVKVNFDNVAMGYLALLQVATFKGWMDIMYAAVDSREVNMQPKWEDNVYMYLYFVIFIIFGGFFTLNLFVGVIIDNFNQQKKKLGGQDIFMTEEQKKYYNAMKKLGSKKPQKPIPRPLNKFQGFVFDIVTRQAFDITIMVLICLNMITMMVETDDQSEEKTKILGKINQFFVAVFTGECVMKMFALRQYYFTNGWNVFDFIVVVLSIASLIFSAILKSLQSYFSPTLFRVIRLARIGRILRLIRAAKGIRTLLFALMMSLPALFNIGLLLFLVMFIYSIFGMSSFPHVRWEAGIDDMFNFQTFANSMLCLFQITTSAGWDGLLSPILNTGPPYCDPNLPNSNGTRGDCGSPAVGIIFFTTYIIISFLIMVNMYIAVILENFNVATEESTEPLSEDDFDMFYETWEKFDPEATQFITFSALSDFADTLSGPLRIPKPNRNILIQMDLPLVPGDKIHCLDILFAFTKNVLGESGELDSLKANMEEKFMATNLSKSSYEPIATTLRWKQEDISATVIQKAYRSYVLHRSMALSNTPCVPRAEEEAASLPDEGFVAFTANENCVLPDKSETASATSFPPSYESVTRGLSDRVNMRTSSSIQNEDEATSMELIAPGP
Sequence of Nav1.7 (Q15858 whole entry): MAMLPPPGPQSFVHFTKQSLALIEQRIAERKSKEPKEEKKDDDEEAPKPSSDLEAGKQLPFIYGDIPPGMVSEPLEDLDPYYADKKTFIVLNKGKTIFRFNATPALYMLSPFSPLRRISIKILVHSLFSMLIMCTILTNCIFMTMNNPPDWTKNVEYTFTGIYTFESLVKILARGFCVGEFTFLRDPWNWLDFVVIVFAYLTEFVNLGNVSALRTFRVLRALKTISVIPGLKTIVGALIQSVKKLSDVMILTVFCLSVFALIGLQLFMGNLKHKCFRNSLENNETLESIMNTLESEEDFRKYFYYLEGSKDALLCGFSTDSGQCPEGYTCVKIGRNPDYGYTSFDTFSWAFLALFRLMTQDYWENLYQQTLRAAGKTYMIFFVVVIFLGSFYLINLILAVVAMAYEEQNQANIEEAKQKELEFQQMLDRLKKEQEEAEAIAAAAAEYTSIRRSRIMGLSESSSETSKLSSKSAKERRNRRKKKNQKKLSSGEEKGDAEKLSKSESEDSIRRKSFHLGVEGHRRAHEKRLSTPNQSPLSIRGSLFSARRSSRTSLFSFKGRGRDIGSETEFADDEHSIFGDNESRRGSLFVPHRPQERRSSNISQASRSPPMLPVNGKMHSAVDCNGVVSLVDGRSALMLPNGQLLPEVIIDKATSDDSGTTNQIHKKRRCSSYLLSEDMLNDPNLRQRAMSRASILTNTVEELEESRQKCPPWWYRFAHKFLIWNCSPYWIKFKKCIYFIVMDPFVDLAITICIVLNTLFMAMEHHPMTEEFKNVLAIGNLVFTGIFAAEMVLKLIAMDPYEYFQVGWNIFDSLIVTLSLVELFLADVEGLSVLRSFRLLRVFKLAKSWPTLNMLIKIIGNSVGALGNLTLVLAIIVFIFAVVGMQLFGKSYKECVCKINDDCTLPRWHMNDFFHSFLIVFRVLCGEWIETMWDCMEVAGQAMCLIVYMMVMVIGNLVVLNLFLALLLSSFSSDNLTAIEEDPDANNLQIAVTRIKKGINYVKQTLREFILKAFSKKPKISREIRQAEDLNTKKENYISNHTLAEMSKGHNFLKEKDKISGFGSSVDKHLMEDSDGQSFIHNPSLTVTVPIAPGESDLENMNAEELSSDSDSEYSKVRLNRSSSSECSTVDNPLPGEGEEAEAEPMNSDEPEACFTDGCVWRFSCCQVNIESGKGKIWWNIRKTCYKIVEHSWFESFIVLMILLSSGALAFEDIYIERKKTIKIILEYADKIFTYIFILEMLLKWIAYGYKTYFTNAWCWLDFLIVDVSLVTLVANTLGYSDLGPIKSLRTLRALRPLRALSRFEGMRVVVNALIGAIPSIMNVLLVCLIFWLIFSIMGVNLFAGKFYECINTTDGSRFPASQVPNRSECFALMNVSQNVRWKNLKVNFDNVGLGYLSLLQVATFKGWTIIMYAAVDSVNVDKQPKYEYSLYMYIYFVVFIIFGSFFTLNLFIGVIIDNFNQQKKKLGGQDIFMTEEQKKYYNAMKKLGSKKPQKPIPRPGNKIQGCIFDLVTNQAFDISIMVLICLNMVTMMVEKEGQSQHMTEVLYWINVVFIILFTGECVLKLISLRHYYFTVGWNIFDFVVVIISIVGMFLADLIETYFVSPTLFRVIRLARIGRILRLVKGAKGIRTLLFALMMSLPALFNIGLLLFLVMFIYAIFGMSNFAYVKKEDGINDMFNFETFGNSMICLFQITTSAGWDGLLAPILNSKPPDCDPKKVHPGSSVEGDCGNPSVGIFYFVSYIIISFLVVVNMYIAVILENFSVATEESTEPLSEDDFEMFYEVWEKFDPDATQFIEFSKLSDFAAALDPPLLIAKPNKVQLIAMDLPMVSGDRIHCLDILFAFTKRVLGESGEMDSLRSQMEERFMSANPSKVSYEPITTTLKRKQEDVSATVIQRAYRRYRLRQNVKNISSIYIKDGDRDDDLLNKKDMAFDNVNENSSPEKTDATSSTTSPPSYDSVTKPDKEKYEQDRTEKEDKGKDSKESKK

Structure (SMILES) | inhibition at 30 µM (Nav1.7) | inhibition at 30 µM (Nav1.3) | Inhibition rate (%) (Nav1.8 sodium channel) | inhibition at 30 µM (Nav1.4)
COCCOc1c([C@H]2[C@H](C(=O)Nc3ccc(F)c(C(=N)NO)c3)O[C@@](C)(C(F)(F)F)[C@H]2C)ccc(F)c1F [Example 10] | 20.8% | 28.6% | 99.65% | 75.4%
C[C@H]1[C@@H](c2ccc(F)c(F)c2OC2COC2)[C@H](C(=O)Nc2ccc(F)c(C(=N)NO)c2)O[C@@]1(C)C(F)(F)F [Example 11] | 14.8% | 21.7% | 87.35% | 8.45%
COc1c([C@H]2[C@H](C(=O)Nc3ccnc(C(N)=O)c3)O[C@@](C)(C(F)(F)F)[C@H]2C)ccc(F)c1F [Reference compound, reference compound] | 11.1% | 63.4% | 94.49% | 83.6%
